Test results reported in patent US12036224B2, “Formulations, methods, kits, and dosage forms for treating atopic dermatitis and for improved stability of an active pharmaceutical ingredient” (Libertas Bio, Inc., priority 2017, dated 2024).

Tested on: IL-17-SYK mediated CCL20 release, human keratinocytes
Assay: Inhibition of IL17 mediated CCL20 release in keratinocytes
Assay type: cell-based
Conditions: single donor, n=3
Procedure: In FIG. 12, each bar represents mean and SEM for 3 replicates (n=3) of a single donor. FIG. 13 is a graph showing average weekly change in pruritus (NRS) for a placebo, and Compound 1 in the doses of 20 mg, 40 mg and 80 mg.

With `COc1cc(Nc2ncc(F)c(Nc3ccc4c(n3)NC(=O)C(C)(C)O4)n2)cc(OC)c1OC` [Tamatinib, reference compound] the “inhibition of IL-17-SYK mediated CCL20 release” value was “unlike Tamatinib and Tofacitinib, Compound 1 inhibits”.
